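Assay format: 96-well plates, 48-hour exposure. Abbreviation: GI50, concentration required for 50% inhibition of growth. TGI marks complete inhibition of growth.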
Experiments:
Test in all cases: DTP human tumour cell line panel, 48 h
[1] = tested on: SK-OV-3 ovarian
[2] = tested on: RPMI-8226 leukemia
[3] = tested on: DU-145 prostate
[4] = tested on: HCC-2998 colon
[5] = tested on: NCI-H226 lung
[6] = tested on: LOX IMVI melanoma
[7] = tested on: M14 melanoma
[8] = tested on: HL-60(TB) leukemia
[9] = tested on: A549 NSCLC
[10] = tested on: HOP-92 NSCLC

SMILES | GI50 [1] | TGI [1] | GI50 [2] | TGI [2] | GI50 [3] | TGI [3] | GI50 [4] | TGI [4] | GI50 [5] | TGI [5] | GI50 [6] | TGI [6] | GI50 [7] | TGI [7] | GI50 [8] | TGI [8] | GI50 [9] | TGI [9] | GI50 [10] | TGI [10]
CCC(CC)c1cc(N[C@H]2CC[C@H](N)C2)n2nccc2n1 | 3.44 µM | > 100 µM | 2.61 µM | > 100 µM | 0.708 µM | > 100 µM | 1.52 µM | 12 µM | 0.969 µM | 48.7 µM | 0.747 µM | > 100 µM | 1.74 µM | 5.4 µM | 0.324 µM | 14.9 µM | 0.511 µM | > 100 µM | 3.56 µM | > 100 µM
CN1CCN(Cc2ccc(NC(=O)c3cncc(C#Cc4c(N)ncc5c(F)cccc45)c3)cc2C(F)(F)F)CC1 | 2.14 µM | 7.45 µM | 0.991 µM | 2.37 µM | 0.832 µM | 1.52 µM | 0.821 µM | 1.56 µM | 0.689 µM | 3.38 µM | 0.646 µM | 1.35 µM | 0.388 µM | 1.17 µM | 0.33 µM | 1.22 µM | 0.794 µM | 1.56 µM | 0.135 µM | 0.858 µM
NS(=O)(=O)c1ccc(N=Nc2c(O)[nH]c3ccc(C(=O)NCCc4cnc[nH]4)cc23)cc1 | > 25 µM | > 25 µM | > 25 µM | > 25 µM | > 25 µM | > 25 µM | > 25 µM | > 25 µM | > 25 µM | > 25 µM | > 25 µM | > 25 µM | > 25 µM | > 25 µM | > 25 µM | > 25 µM | > 25 µM | > 25 µM | > 25 µM | > 25 µM
O=C(Nc1ccn(C2CC(I)C(COC(c3ccccc3)(c3ccccc3)c3ccccc3)O2)c(=O)n1)c1ccccc1 (stereo not given) |  | 21.5 µM |  | 17 µM |  | 21.5 µM |  | 21.5 µM |  | 12.8 µM |  | 14.7 µM |  | 13.8 µM |  | 21.5 µM |  | 21.5 µM |  | 13.2 µM
NC(=O)c1cc(I)ccc1NC(=O)/C=C/c1ccccc1Cl | 0.529 µM | 14.9 µM | 0.504 µM | 4.66 µM | 0.837 µM | 5.64 µM | 0.969 µM | 5.61 µM | 1.61 µM | > 60.6 µM | 1.82 µM | 98.7 µM | 0.621 µM | 24.8 µM | 0.158 µM | 0.631 µM | 1.18 µM | 25.2 µM | 7.22 µM | 36.4 µM
CCNC(=O)Oc1ccc(/C(=C(\C)c2ccc(Cl)cc2)c2ccc(OCCN(CC)CC)cc2)cc1 | 10.7 µM | 22.8 µM | 2.4 µM | 6 µM | 11.1 µM | 24.2 µM | 4.39 µM | 16.3 µM | 17.2 µM | 39.5 µM | 1.94 µM | 4.02 µM | 1.97 µM | 3.97 µM | 1.79 µM | 4.37 µM | 5.63 µM | 18.4 µM | 3.16 µM | 12.6 µM
CON=C1C[C@]2(C[C@@H]3C[C@@H](C/C=C(\C)C[C@@H](C)/C=C/C=C4\CO[C@@H]5[C@H](O)C(C)=C[C@@H](C(=O)O3)[C@]45O)O2)O[C@H](/C(C)=C/C(C)C)[C@H]1C | 15.2 µM | 28.5 µM | 4.23 µM | 53.6 µM | 7.55 µM | 20.1 µM | 12.1 µM | 26.9 µM | 16 µM | 29.8 µM | 13.3 µM | 26.5 µM | 16.1 µM | 33.1 µM | 2.48 µM | 5.92 µM | 13.8 µM | 29.1 µM | 1.99 µM | 11.8 µM

Reference: PubChem BioAssay (NCI)
